≈ marks a conversion by molar mass, not a printed value. Calls of active or inactive are those of the source. The rule behind the calls is not given here.
What was measured:
Format in all cases: functional
[1] = tested on: Candida albicans; assay: Antimicrobial activity against Candida albicans MTCC 227 at 100 ug after 48 hr by agar well diffusion method; conditions: for zone of inhibition at 100 µg/disc: MTCC 227, 48 h, read-out: IZ
[2] = tested on: Escherichia coli; assay: Antimicrobial activity against Escherichia coli MTCC 443 by broth dilution method
[3] = tested on: Aspergillus niger; assay: Antimicrobial activity against Aspergillus niger MTCC 282 at 100 ug after 48 hr by agar well diffusion method; conditions: for zone of inhibition at 100 µg/disc: MTCC 282, 48 h, read-out: IZ
[4] = tested on: Staphylococcus epidermidis; assay: Antimicrobial activity against Staphylococcus epidermidis by broth dilution method
[5] = tested on: Saccharomyces cerevisiae; assay: Antimicrobial activity against Saccharomyces cerevisiae MTCC 36 at 100 ug after 48 hr by agar well diffusion method; conditions: for zone of inhibition at 100 µg/disc: MTCC 36, 48 h, read-out: IZ
[6] = tested on: Staphylococcus aureus; assay: Antimicrobial activity against Staphylococcus aureus MTCC 96 by broth dilution method
[7] = tested on: Rhizopus arrhizus; assay: Antimicrobial activity against Rhizopus oryzae MTCC 262 at 100 ug after 48 hr by agar well diffusion method; conditions: for zone of inhibition at 100 µg/disc: MTCC 262, 48 h, read-out: IZ
[8] = tested on: Pseudomonas aeruginosa; assay: Antimicrobial activity against Pseudomonas aeruginosa MTCC 741 by broth dilution method
[9] = tested on: Bacillus subtilis; assay: Antimicrobial activity against Bacillus subtilis MTCC 441 by broth dilution method
[10] = tested on: Rhizopus arrhizus; assay: Antimicrobial activity against Rhizopus oryzae MTCC 262 at 150 ug after 48 hr by agar well diffusion method; conditions: for zone of inhibition at 150 µg/disc: MTCC 262, 48 h, read-out: IZ
[11] = tested on: Aspergillus niger; assay: Antimicrobial activity against Aspergillus niger MTCC 282 at 150 ug after 48 hr by agar well diffusion method; conditions: for zone of inhibition at 150 µg/disc: MTCC 282, 48 h, read-out: IZ
[12] = tested on: Candida albicans; assay: Antimicrobial activity against Candida albicans MTCC 227 at 150 ug after 48 hr by agar well diffusion method; conditions: for zone of inhibition at 150 µg/disc: MTCC 227, 48 h, read-out: IZ
[13] = tested on: Saccharomyces cerevisiae; assay: Antimicrobial activity against Saccharomyces cerevisiae MTCC 36 at 150 ug after 48 hr by agar well diffusion method; conditions: for zone of inhibition at 150 µg/disc: MTCC 36, 48 h, read-out: IZ
[14] = tested on: Klebsiella pneumoniae; assay: Antimicrobial activity against Klebsiella pneumoniae MTCC 618 by broth dilution method

SMILES | MIC [2] [µg/mL] | MIC [4] [µg/mL] | MIC [6] [µg/mL] | MIC [8] [µg/mL] | MIC [9] [µg/mL] | MIC [14] [µg/mL] | Activity [1] | Activity [3] | Activity [5] | Activity [7] | Activity [10] | Activity [11] | Activity [12] | Activity [13] | zone of inhibition at 100 µg/disc [5] [mm] | zone of inhibition at 150 µg/disc [10] [mm] | zone of inhibition at 150 µg/disc [11] [mm] | zone of inhibition at 150 µg/disc [12] [mm] | zone of inhibition at 150 µg/disc [13] [mm] | zone of inhibition at 100 µg/disc [1] [mm] | also measured
O=c1oc2ccc(Cl)cc2n1CCCN1CCN(c2ncccn2)CC1 | 150 (≈ 401 µM) | 150 (≈ 401 µM) | 150 (≈ 401 µM) | 150 (≈ 401 µM) | 150 (≈ 401 µM) | 150 (≈ 401 µM) | inactive | inactive | inactive | inactive | inactive | inactive | inactive | inactive |  |  |  |  |  |  | 
CN1CCN(c2nc3ccccc3o2)CC1 | 150 (≈ 690 µM) | 75 (≈ 345 µM) | 150 (≈ 690 µM) | 150 (≈ 690 µM) | 150 (≈ 690 µM) | 150 (≈ 690 µM) | inactive | inactive | inactive | inactive | inactive | inactive | inactive | inactive |  |  |  |  |  |  | 
c1ccc2oc(N3CCOCC3)nc2c1 | 150 (≈ 734 µM) | 150 (≈ 734 µM) | 75 (≈ 367 µM) | 150 (≈ 734 µM) | 150 (≈ 734 µM) | 37.5 (≈ 184 µM) |  | inactive | inactive | inactive | inactive | inactive |  | inactive |  |  |  | 9 |  | 7 | 
O=c1oc2ccc(Cl)cc2n1CCCN1CCN(c2cccc(Cl)c2)CC1 | 150 (≈ 369 µM) | 150 (≈ 369 µM) | 150 (≈ 369 µM) | 150 (≈ 369 µM) | 150 (≈ 369 µM) | 150 (≈ 369 µM) | inactive | inactive | inactive | inactive | inactive | inactive | inactive | inactive |  |  |  |  |  |  | 
C=CCCn1c(=O)oc2ccc(Cl)cc21 | 150 (≈ 671 µM) | 150 (≈ 671 µM) | 150 (≈ 671 µM) | 150 (≈ 671 µM) | 150 (≈ 671 µM) | 37.5 (≈ 168 µM) | inactive | inactive | inactive |  |  | inactive | inactive | inactive |  | 13 |  |  |  |  | zone of inhibition at 100 µg/disc [7]: 9 mm
c1ccc(N2CCN(c3nc4ccccc4o3)CC2)nc1 | 150 (≈ 535 µM) | 150 (≈ 535 µM) | 150 (≈ 535 µM) | 75 (≈ 268 µM) | 150 (≈ 535 µM) | 150 (≈ 535 µM) |  | inactive | inactive | inactive | inactive | inactive |  | inactive |  |  |  | 10 |  | 8 | 
c1cnc(N2CCN(c3nc4ccccc4o3)CC2)nc1 | 150 (≈ 533 µM) | 150 (≈ 533 µM) | 150 (≈ 533 µM) | 75 (≈ 267 µM) | 150 (≈ 533 µM) | 75 (≈ 267 µM) | inactive | inactive | inactive |  |  | inactive | inactive | inactive |  | 10 |  |  |  |  | zone of inhibition at 100 µg/disc [7]: 8 mm
CCN1CCN(c2nc3ccccc3o2)CC1 | 150 (≈ 649 µM) | 75 (≈ 324 µM) | 150 (≈ 649 µM) | 150 (≈ 649 µM) | 150 (≈ 649 µM) | 75 (≈ 324 µM) |  |  |  | inactive | inactive |  |  |  | 7 |  | 12 | 10 | 9 | 8 | zone of inhibition at 100 µg/disc [3]: 9 mm
CC(C)=CCn1c(=O)oc2ccc(Cl)cc21 | 150 (≈ 631 µM) | 75 (≈ 316 µM) | 150 (≈ 631 µM) | 75 (≈ 316 µM) | 150 (≈ 631 µM) | 150 (≈ 631 µM) |  |  |  | inactive |  |  |  |  | 8 | 9 | 11 | 10 | 10 | 7 | zone of inhibition at 100 µg/disc [3]: 8 mm
O=c1oc2ccc(Cl)cc2n1Cc1ccccc1 | 150 (≈ 578 µM) | 75 (≈ 289 µM) | 75 (≈ 289 µM) | 150 (≈ 578 µM) | 150 (≈ 578 µM) | 75 (≈ 289 µM) | inactive | inactive | inactive | inactive | inactive | inactive | inactive | inactive |  |  |  |  |  |  | 
CN[C@@H]1[C@H](O[C@H]2[C@H](O[C@H]3[C@H](O)[C@@H](O)[C@H](N=C(N)N)[C@@H](O)[C@@H]3N=C(N)N)O[C@@H](C)[C@]2(O)C=O)O[C@@H](CO)[C@H](O)[C@H]1O [STREPTOMYCIN] | 6.25 (≈ 10.7 µM) | 3.12 (≈ 5.37 µM) | 6.25 (≈ 10.7 µM) | 1.56 (≈ 2.69 µM) | 6.25 (≈ 10.7 µM) | 3.12 (≈ 5.37 µM) |  |  |  |  |  |  |  |  |  |  |  |  |  |  | 
O=c1oc2ccc(Cl)cc2n1CCCCl | 150 (≈ 610 µM) | 150 (≈ 610 µM) | 150 (≈ 610 µM) | 150 (≈ 610 µM) | 150 (≈ 610 µM) | 150 (≈ 610 µM) |  |  |  |  |  |  |  |  | 12 | 15 | 17 | 19 | 15 | 14 | zone of inhibition at 100 µg/disc [3]: 13 mm; zone of inhibition at 100 µg/disc [7]: 11 mm
C=CCn1c(=O)oc2ccc(Cl)cc21 | 150 (≈ 716 µM) | 150 (≈ 716 µM) | 150 (≈ 716 µM) | 75 (≈ 358 µM) | 150 (≈ 716 µM) | 37.5 (≈ 179 µM) | inactive |  | inactive | inactive | inactive |  |  | inactive |  |  | 10 | 8 |  |  | zone of inhibition at 100 µg/disc [3]: 8 mm
C#CCn1c(=O)oc2ccc(Cl)cc21 | 37.5 (≈ 181 µM) | 75 (≈ 361 µM) | 75 (≈ 361 µM) | 37.5 (≈ 181 µM) | 75 (≈ 361 µM) | 75 (≈ 361 µM) |  |  |  |  |  |  |  |  | 14 | 19 | 18 | 11 | 18 | 8 | zone of inhibition at 100 µg/disc [3]: 15 mm; zone of inhibition at 100 µg/disc [7]: 15 mm

Now from value to molecule, other results behind:

MIC [2] [µg/mL] | MIC [4] [µg/mL] | MIC [6] [µg/mL] | MIC [8] [µg/mL] | MIC [9] [µg/mL] | MIC [14] [µg/mL] | SMILES | Activity [1] | Activity [3] | Activity [5] | Activity [7] | Activity [10] | Activity [11] | Activity [12] | Activity [13] | zone of inhibition at 100 µg/disc [5] [mm] | zone of inhibition at 150 µg/disc [10] [mm] | zone of inhibition at 150 µg/disc [11] [mm] | zone of inhibition at 150 µg/disc [12] [mm] | zone of inhibition at 150 µg/disc [13] [mm] | zone of inhibition at 100 µg/disc [1] [mm] | also measured
150 (≈ 607 µM) | 150 (≈ 607 µM) | 75 (≈ 303 µM) | 75 (≈ 303 µM) | 150 (≈ 607 µM) | 75 (≈ 303 µM) | OCCN1CCN(c2nc3ccccc3o2)CC1 | inactive | inactive | inactive | inactive | inactive | inactive | inactive | inactive |  |  |  |  |  |  | 
150 (≈ 511 µM) | 75 (≈ 256 µM) | 150 (≈ 511 µM) | 75 (≈ 256 µM) | 150 (≈ 511 µM) | 150 (≈ 511 µM) | c1ccc(CN2CCN(c3nc4ccccc4o3)CC2)cc1 | inactive | inactive |  | inactive |  |  |  |  | 12 | 9 | 9 | 9 | 10 |  | 
150 (≈ 478 µM) | 150 (≈ 478 µM) | 75 (≈ 239 µM) | 150 (≈ 478 µM) | 150 (≈ 478 µM) | 150 (≈ 478 µM) | Clc1cccc(N2CCN(c3nc4ccccc4o3)CC2)c1 | inactive | inactive | inactive | inactive | inactive | inactive | inactive | inactive |  |  |  |  |  |  | 
75 (≈ 268 µM) | 150 (≈ 537 µM) | 150 (≈ 537 µM) | 75 (≈ 268 µM) | 150 (≈ 537 µM) | 150 (≈ 537 µM) | c1ccc(N2CCN(c3nc4ccccc4o3)CC2)cc1 | inactive | inactive | inactive | inactive | inactive | inactive |  | inactive |  |  |  | 9 |  |  | 
150 (≈ 742 µM) | 150 (≈ 742 µM) | 150 (≈ 742 µM) | 150 (≈ 742 µM) | 150 (≈ 742 µM) | 150 (≈ 742 µM) | c1ccc2oc(N3CCCCC3)nc2c1 |  |  |  |  |  |  |  |  | 9 | 11 | 10 | 12 | 12 | 9 | zone of inhibition at 100 µg/disc [3]: 8 mm; zone of inhibition at 100 µg/disc [7]: 8 mm
12.5 (≈ 37.4 µM) | 3.12 (≈ 9.35 µM) | 1.56 (≈ 4.67 µM) | 12.5 (≈ 37.4 µM) | 1.56 (≈ 4.67 µM) | 6.25 (≈ 18.7 µM) | CC1(C)S[C@@H]2[C@H](NC(=O)Cc3ccccc3)C(=O)N2[C@H]1C(=O)O [PENICILLIN G] |  |  |  |  |  |  |  |  |  |  |  |  |  |  | 

— ChEMBL document CHEMBL3045696, “CsFCelite catalyzed facile N-alkylation of 2(3H)-benzoxazolones and antimicrobial properties of 2-substituted benzoxazole and 3-substituted-2(3H)-benzoxazolone derivatives” (2011)
